Results reported in US5126488A, “2β,19-methyleneamino bridged steroids as aromatase inhibitors” (Merrell Dow Pharmaceuticals Inc., priority 1990, dated 1992).

Molecular target: T1, aromatase (Homo sapiens, UniProt P11511)
T1 construct: 700 μl of aromatase preparation, usually 300-800 μg of microsomal protein per ml of assay buffer; from tissue; host or cells: microsomes
T1 sequence (P11511 1-503): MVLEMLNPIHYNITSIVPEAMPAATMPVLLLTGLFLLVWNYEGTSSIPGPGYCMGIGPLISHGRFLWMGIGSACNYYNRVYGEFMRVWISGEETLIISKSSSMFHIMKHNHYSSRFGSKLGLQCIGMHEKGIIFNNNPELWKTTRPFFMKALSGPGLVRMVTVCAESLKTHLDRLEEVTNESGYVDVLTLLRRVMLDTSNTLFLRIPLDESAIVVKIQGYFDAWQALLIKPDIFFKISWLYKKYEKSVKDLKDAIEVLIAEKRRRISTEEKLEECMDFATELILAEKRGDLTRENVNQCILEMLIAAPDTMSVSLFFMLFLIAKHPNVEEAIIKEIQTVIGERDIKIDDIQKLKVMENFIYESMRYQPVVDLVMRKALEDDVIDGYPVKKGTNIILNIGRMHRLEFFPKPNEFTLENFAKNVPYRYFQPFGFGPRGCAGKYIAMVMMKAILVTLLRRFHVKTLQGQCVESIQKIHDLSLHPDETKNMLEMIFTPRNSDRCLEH
Test: time-dependent aromatase inhibition assay (preincubation, Kitz-Wilson analysis)
Format: biochemical
Conditions: Kitz-Wilson plots
Method: In this assay, the inhibitor is preincubated with enzyme prior to assaying for activity in the presence of high substrate levels. A time-related decrease in enzyme activity can be indicative of a preferred mode of inhibition.
In the time-dependent assay, an amount of the enzyme inhibitor in 100 μl of the assay buffer described above which will provide assay concentrations which are usually between 1 nM and 10 μm are added to 35 ml centrifuge tubes containing 600 μl of the NADPH generating system. The preincubation is started by the addition of 700 μl of aromatase preparation, usually 300-800 μg of microsomal protein per ml of assay buffer. These preparations are mixed using a vortex mixer and incubated for 0, 5, 10 or 20 minutes at 25° C. […] The amount of radioactivity in the aqueous fraction is determined by scintillation procedures. The enzymatic activity for each concentration of inhibitor at each time period of preincubation is calculated as a percent of the "0" minute vehicle control arbitrarily set at 100%. Therefore, the present enzyme inhibition is expressed as a percentage: (100 percent minus percent enzyme activity with inhibitor present).
Enzyme kinetic analysis utilized Kitz-Wilson plots for time-dependent assays. […] The pseudo first-order rate constant for enzyme inactivation (kcat) and the half-time of inactivation (.tau.50) of infinite inhibitor concentrations were determined. […]

`C[C@]12CC[C@H]3[C@@H](CCC4=CC(=O)[C@H]5CNC[C@]43C5)[C@@H]1CCC2=O` [2β,19-(methyleneamino)androst-4-ene-3,17-dione] was tested, and the “.tau.50 (half-time of inactivation)” value (at infinite inhibitor concentrations) was 2.66 min and the KI (inactivation) (inhibitor concentration giving half-maximal rate of enzyme inactivation, microsomal aromatase preparation, preincubation 0-20 min at 25° C., read-out: Ki (apparent Ki of inactivation)) was 259 nM.
